The values below come from patent US20250152616A1, “COMPOSITIONS FOR AND METHODS OF TREATING, PREVENTING, AND/OR MITIGATING PAIN” (Duke University, priority 2022, published 2025).

Each structure is given as a SMILES string.

The data set in a line: Measurement of adenosine in plasma of fractured mice. As to conditions: 3 days after implantation of adenosine-loaded biomaterial following tibial fracture. Type of data set: in vivo, mouse. The procedure:
Peripheral blood was collected and immediately incubated in ice cold stop solution at a 1:2 ratio (blood to stop solution) to inhibit degradation of adenosine (Feldman M D, et al. (1992) Clin Chem. 38:256-262). Stop solution comprised of 0.2 mM dipyridamole (Tocris, Minneapolis, MN), 5 μM erythro-9 (2-hydroxy-3-nonyl)-adenine (EHNA; Tocris), 62 μM Adenosine 5′-(α,β-methylene) diphosphate sodium salt (APCP), 5 mM EDTA, and 25 IU/mL heparin (Tocris) in PBS. The blood was centrifuged at 2000 rcf for 10 min at 4° C. to separate cells from plasma. Adenosine assay kit (Cell Biolabs, San Diego, CA, Cat #MET-5090) was used to measure adenosine levels from plasma according to manufacturer's protocol. Briefly, a reaction mixture comprised of fluorometric Probe, HRP, adenosine deaminase, purine nucleoside phosphorylase, xanthine oxidase, assay buffer and a control mix comprised of fluorometric Probe, HRP, purine nucleoside phosphorylase, xanthine oxidase, assay buffer were made and mixed with 50 μL of plasma for 15 min. at room temp. The relative fluorescence unit (RFU) was measured using a microplate reader with excitation at 570 nm and emission at 590 nm. Adenosine concentration was determined using a standard curve of known concentrations and subtracted for the background by using the values in control mix.

With `Nc1ncnc2c1ncn2[C@@H]1O[C@H](CO)[C@@H](O)[C@H]1O` [adenosine], the “adenosine level in peripheral blood vs control biomaterials” value was “No significant increase”.
